Assay results taken from patent publication US20100022596A1, “EPOTHILONE ANALOGUES” (priority 2006, published 2010).
Several values for one entry are separate records, joined by “and”; a condition that tells them apart may be missing. Equal values may be shown once.

Tests used:
[1] = test system: human epidermoid carcinoma cell line KB-8511; test: Growth inhibition of KB-8511 cells (P-gp170-overexpressing multidrug-resistant subline), 72 h, methylene blue staining; assay type: cell-based
[2] = test system: human epidermoid carcinoma cell line KB-31; test: Growth inhibition of KB-31 cells, 72 h, methylene blue staining; assay type: cell-based; settings: KB-31, 72 h exposure
Procedure: Determination of IC50 Values Against Human Epidermoid Carcinoma Cell Lines KB-31
Cells are exposed to compounds for 72 h. Cell numbers are estimated by quantification of protein content of fixed cells by methylene blue staining.

[3] = KB-8511 (P-gp170-overexpressing), 72 h exposure
[4] = KB-8511, 72 h exposure, class symbols

| IC50 ([1]; Homo sapiens, KB-8511, 72 h exposure, class symbols) [nM] | IC50 ([2]; Homo sapiens, KB 3-1, 72 h, class symbols) [nM] | IC50 ([1]; Homo sapiens, KB-8511 (P-gp170-overexpressing), 72 h exposure) [nM] | IC50 ([2]; Homo sapiens, KB 3-1, 72 h) [nM] | SMILES | IC50 [1, 3] | IC50 [1, 4] [nM] | IC50 [2] | IC50 ([2]; class symbols) [nM] | IC50 ([1]; KB-8511, 72 h exposure, class symbols, listed as drawing 62) [nM] |
| --- | --- | --- | --- | --- | --- | --- | --- | --- | --- |
| > 1000 | 500 to 750 |  |  | C/C(=C\c1csc(C)n1)[C@@H]1C[C@@H]2OC(=O)NC2CCCC(C)[C@H](O)C(C)C(=O)C(C)(C)C(O)CC(=O)O1 (stereo partly shown) [Compound 1] |  |  |  |  |  |
|  |  |  |  | CC(=Cc1csc(C)n1)C1CC2OC(C)=NC2CCCC(C)C(O)C(C)C(=O)C(C)(C)C(O)CC(=O)O1 (stereo not shown) [Compound 4a] | > 1000 nM | > 1000 | > 1000 nM | > 1000 |  |
|  |  |  |  | CCC1=NC2CCCC(C)C(O)C(C)C(=O)C(C)(C)C(O)CC(=O)OC(C(C)=Cc3csc(C)n3)CC2O1 (stereo not shown) [Compound 4b] | 5540 nM | > 1000 | 1860 nM | > 1000 |  |
|  |  |  |  | CCCCC1=NC2CCCC(C)C(O)C(C)C(=O)C(C)(C)C(O)CC(=O)OC(C(C)=Cc3csc(C)n3)CC2O1 (stereo not shown) [Compound 4c] | 923 nM and 998 nM | 750 to 1000 | 344 nM and 386 nM | 250 to 500 |  |
|  |  |  |  | CC(=Cc1csc(C)n1)C1CC2OC(C(C)(C)C)=NC2CCCC(C)C(O)C(C)C(=O)C(C)(C)C(O)CC(=O)O1 (stereo not shown) [Compound 4d] | 55 nM | 100 to 250 | 12 nM | 100 to 250 |  |
|  |  |  |  | COC1=NC2CCCC(C)C(O)C(C)C(=O)C(C)(C)C(O)CC(=O)OC(C(C)=Cc3csc(C)n3)CC2O1 (stereo not shown) [Compound 4e] | 5520 nM | > 1000 | 1270 nM | > 1000 |  |
|  |  | > 10000 | 615 | C/C(=C\c1csc(C)n1)[C@@H]1C[C@@H]2OC(=O)NC2CCCC(C)[C@H](O)C(C)C(=O)C(C)(C)C(O)CC(=O)O1 (stereo partly shown) [Compound 4h] |  |  | 640 nM |  |  |
|  |  |  |  | CC(=Cc1csc(C)n1)C1CC2OC(c3ccsc3)=NC2CCCC(C)C(O)C(C)C(=O)C(C)(C)C(O)CC(=O)O1 (stereo not shown) [Compound 5l] | 146 nM |  | 42 nM |  | < 100 |
|  |  |  |  | CC(=Cc1csc(C)n1)C1CC2OC(c3ccncc3)=NC2CCCC(C)C(O)C(C)C(=O)C(C)(C)C(O)CC(=O)O1 (stereo not shown) [Compound 6a] | 83 nM | < 100 | 30 nM | < 100 |  |
|  |  |  |  | CC(=Cc1csc(C)n1)C1CC2OC(c3ccsc3)=NC2CCCC(C)C(O)C(C)C(=O)C(C)(C)C(O)CC(=O)O1 (stereo not shown) [drawing 72] |  | 100 to 250 |  | < 100 |  |
